Source: patent US20110136766A1, “AURORA KINASE INHIBITORS” (Vitae Pharmaceuticals, Inc., priority 2008, published 2011)
pIC50: −log10 of the molar value.

Assays:
[1] = target: T1, full-length human Aurora A (Homo sapiens, UniProt O14965); assay: Aurora A phosphocellulose filter binding kinase activity assay; format: biochemical; conditions: 11 nM Aurora A, 10 μM ATP, 50 μM Kemptide, 45 min; read-out: Aur-A IC50
T1 construct: The full-length human Aurora A carrying His6 tag at the N-terminus; His6 (N); purchased Invitrogen, Carlsbad, Calif
T1 sequence (O14965 1-403): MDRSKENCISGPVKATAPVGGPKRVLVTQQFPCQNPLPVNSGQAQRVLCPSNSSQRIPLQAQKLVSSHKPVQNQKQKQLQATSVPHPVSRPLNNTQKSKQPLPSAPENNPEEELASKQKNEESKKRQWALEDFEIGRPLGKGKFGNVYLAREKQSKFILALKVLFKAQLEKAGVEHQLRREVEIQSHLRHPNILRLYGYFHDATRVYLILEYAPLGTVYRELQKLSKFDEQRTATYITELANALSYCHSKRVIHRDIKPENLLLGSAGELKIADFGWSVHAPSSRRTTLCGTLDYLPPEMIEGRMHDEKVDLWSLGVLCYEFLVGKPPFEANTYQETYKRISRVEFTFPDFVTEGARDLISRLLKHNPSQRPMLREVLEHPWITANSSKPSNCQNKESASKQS
Experimental: (§1) Kinase activity of Aurora kinases was measured by phosphocellulose filter binding assay. The full-length human Aurora A carrying His6 tag at the N-terminus (Invitrogen, Carlsbad, Calif.) and the full-length human Aurora B (N-terminal GST fusion) co-expressed and co-purified with the His6-INCENP INBOX, aminoacids 803-918 (Carna BioSciences, Japan) were used as the enzyme in the assays. Tested compounds were diluted in DMSO and pre-incubated with the enzyme and ATP/Mg^2+ mixture for at least 10 minutes. The reaction was started by addition of the Kemptide peptide substrate (LRRASLG) and allowed to proceed for 45 min at room temperature. Each reaction in a final volume of 40 μl contained 50 μM Kemptide, 10 μM [γ-^33P]ATP (1 Ci/mmol) and either 11 nM Aurora A or 1.5 nM Aurora B/INCENP complex in the buffer containing 10 mM MgCl2, 5% DMSO, 20 mM MOPS, pH 7.2, 25 mM β-glycerol phosphate, 5 mM EGTA, 1 mM Na3VO4 and either 0.1 mg/ml of BSA and 1 mM DTT for Aurora A or 0.01% Triton-X100 and 2 mM DTT for Aurora B. The reaction was stopped with 25 μl of 5% H3PO4, and 45 μl of the mixture was transferred into a MultiScreen-PH filterplate (Millipore) pre-washed with 0.85% H3PO4. The filterplate was washed 4 times with 200 μl of 0.85% H3PO4 on a vacuum manifold. Scintillation fluid (50 μl of Ultima Gold™ LLT, PerkinElmer, Waltham, Mass.) was added to each well, and after 1-hr incubation at room temperature the plates were counted on MicroBeta (PerkinElmer, Waltham, Mass.) plate reader. […] Percent inhibition values were calculated based on the counts of the positive and negative controls, and these values were regressed against inhibitor concentration and fit into a four parameter model. From this fit the IC50 values (the inhibitor concentration at which 50% inhibition occurs) were derived as the inflection point on the semi-logarithm inhibition curve.

[2] = target: T2, full-length human Aurora B/INCENP complex (Homo sapiens, UniProt Q96GD4); assay: Aurora B phosphocellulose filter binding kinase activity assay; format: biochemical; conditions: 1.5 nM Aurora B/INCENP complex, 10 μM ATP, 50 μM Kemptide, 45 min; read-out: Aur-B IC50
T2 construct: the full-length human Aurora B (N-terminal GST fusion); GST (N); purchased Carna BioSciences, Japan
Experimental: as §1

Colo205 = assay: CellTiter-Glo cell viability assay, Colo205; format: cell-based; conditions: Homo sapiens, COLO 205; Colorectal cancer; 72 hrs; 50% growth inhibition relative to control; read-out: Colo205 IC50
From the text: (§2) The CellTiter-Glo® Luminescent Cell Viability Assay is a homogeneous method of determining the number of viable cells in culture based on quantitation of the ATP present, which signals the presence of metabolically active cells. The homogeneous assay procedure involves addition of a single reagent directly to cells cultured in serum-supplemented medium. The homogeneous format results in cell lysis and generation of a luminescent signal proportional to the amount of ATP present. The CellTiter-Glo® Assay relies on the properties of a proprietary thermostable luciferase (Ultra-Glo. Recombinant Luciferase), which generates a stable glow-type Luminescent signal. The half-life of the luminescent signal resulting from this reaction is greater than five hours. This extended half-life eliminates the need for reagent injectors and provides flexibility for continuous or batch-mode processing of multiple plates. The unique homogeneous format reduces pipetting errors that may be introduced during the multiple steps required by other ATP-measurement methods.
(§3) 96 Well cell culture plates were seeded with 10^3 mammalian cells (Colo205, HL-60, SW620, HCT116, MCF-7 and MV-411) in 100 μl culture medium. The cells were incubated overnight prior to initiating the assay. Control wells were prepared on a plate containing medium only to obtain a value for background luminescence.
(§4) Compounds to be tested were added to experimental wells and incubated for 72 hrs (Colo205, HL-60, MV-411), 168 hrs (HCT116, SW620) or 240 hrs (MCF-7). Wells were also set up to as vehicle controls with the addition of 0.1% DMSO. At the end of the incubation period, the plates were equilibrated to room temperature for approximately 30 minutes.
(§5) Lyophilized CellTiter-Glo® Substrate and the CellTiter-Glo® Buffer were warmed to room temperature. The CellTiter-Glo® Buffer was mixed with the CellTiter-Glo® Substrate to reconstitute the lyophilized enzyme/substrate mixture. This forms the CellTiter-Glo® Reagent. The contents were mixed by gently vortexing, swirling or by inverting the contents to obtain a homogeneous solution. 100 μl of CellTiter-Glo® Reagent was added to the cell culture medium present in each well. The contents were mixed for 2 minutes on an orbital shaker to induce cell lysis. The plates were allowed to incubate at room temperature for 10 minutes to stabilize luminescent signal. The contents of the 96 well cell culture plate were then transferred to a white 96 well Optiplate (Perkin Elmer). The luminescence was recorded on Wallac 1420 VICTOR^2 V Multilabel Platereader (An integration time of 0.25-1 second per well).
(§6) 10 mM DMSO stock Compounds were serially diluted threefold in DMSO. Subsequent dilutions made into cell culture media prior to addition to cells to maintain the DMSO concentration at or below 0.1% to avoid cell toxicity.
(§7) The IC50s in Table 2 are the concentration at which 50% growth inhibition relative to control occurs.

HL-60 = assay: CellTiter-Glo cell viability assay, HL-60; format: cell-based; conditions: Homo sapiens, HL-60; Leukemia; 72 hrs; 50% growth inhibition relative to control; read-out: HL-60 IC50
From the text: as §2, §3, §4, §5, §6, §7

SW620 = assay: CellTiter-Glo cell viability assay, SW620; format: cell-based; conditions: Homo sapiens, SW-620; Colorectal cancer; 168 hrs; 50% growth inhibition relative to control; read-out: SW620 IC50
From the text: as §2, §3, §4, §5, §6, §7

HCT116 = assay: CellTiter-Glo cell viability assay, HCT116; format: cell-based; conditions: Homo sapiens, HCT-116; Colorectal cancer; 168 hrs; 50% growth inhibition relative to control; read-out: HCT116 IC50
From the text: as §2, §3, §4, §5, §6, §7

MCF-7 = assay: CellTiter-Glo cell viability assay, MCF-7; format: cell-based; conditions: Homo sapiens, MCF7; Breast Cancer; 240 hrs; 50% growth inhibition relative to control; read-out: MCF-7 IC50
From the text: as §2, §3, §4, §5, §6, §7

MV-411 = assay: CellTiter-Glo cell viability assay, MV-411; format: cell-based; conditions: Homo sapiens, MV4-11; Leukemia; 72 hrs; 50% growth inhibition relative to control; read-out: MV-411 IC50
From the text: as §2, §3, §4, §5, §6, §7

T2 sequence (Q96GD4 whole entry, the tested form may be a part): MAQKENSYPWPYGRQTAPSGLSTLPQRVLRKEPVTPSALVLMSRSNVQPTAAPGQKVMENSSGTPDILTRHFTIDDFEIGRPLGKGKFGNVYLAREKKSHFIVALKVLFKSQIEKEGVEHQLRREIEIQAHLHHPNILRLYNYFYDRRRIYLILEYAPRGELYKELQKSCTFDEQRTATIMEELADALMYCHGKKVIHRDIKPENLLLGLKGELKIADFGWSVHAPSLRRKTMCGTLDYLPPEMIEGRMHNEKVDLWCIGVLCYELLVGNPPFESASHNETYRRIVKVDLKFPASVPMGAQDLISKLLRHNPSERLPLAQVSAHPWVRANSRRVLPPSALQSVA
T2 sequence (Q9NQS7 803-918 partner limits assumed): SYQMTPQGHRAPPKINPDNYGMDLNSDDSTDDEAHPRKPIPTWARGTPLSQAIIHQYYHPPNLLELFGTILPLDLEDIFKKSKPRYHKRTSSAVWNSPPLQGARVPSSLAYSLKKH

SMILES | pIC50 [1] | pIC50 [2] | pIC50 (Colo205) | pIC50 (HL-60) | pIC50 (SW620) | pIC50 (HCT116) | pIC50 (MCF-7) | pIC50 (MV-411)
O=C(Cc1cc(Nc2ncnc3cc(-c4ccc(S(=O)(=O)N5CC[C@@H](F)C5)cc4)ccc23)n[nH]1)Nc1cccc(F)c1 [Compound 6, (R)-N-(3-fluorophenyl)-2-(3-(7-(4-(3-fluoropyrrolidin-1-ylsulfonyl)phenyl)quinazolin-4-ylamino)-1H-pyrazol-5-yl)acetamide] | 8.20 | 9.20 | 8.41 | 8.65 | 8.62 | 8.72 | 8.11 | 8.24
O=C(Cc1cc(Nc2ncnc3cc(-c4ccc(S(=O)(=O)N5CC[C@H](F)C5)cc4)ccc23)n[nH]1)Nc1cccc(F)c1 [Compound 5, (S)-N-(3-fluorophenyl)-2-(3-(7-(4-(3-fluoropyrrolidin-1-ylsulfonyl)phenyl)quinazolin-4-ylamino)-1H-pyrazol-5-yl)acetamide] | 8.15 | 9.25 | 8.41 | 8.92 | 8.66 | 8.72 | 7.94 | 8.19
O=C(Cc1cc(Nc2ncnc3cc(-c4ccc(S(=O)(=O)N5CCCC5)cc4)ccc23)n[nH]1)Nc1cccc(F)c1 [Compound 3, N-(3-fluorophenyl)-2-(3-(7-(4-(pyrrolidin-1-ylsulfonyl)phenyl)quinazolin-4-ylamino)-1H-pyrazol-5-yl)acetamide] | 8.22 | 9.33 | 8.65 | 8.97 | 8.67 | 8.34 | 8.25 | 8.23
O=C(Cc1cc(Nc2ncnc3cc(-c4ccc(C(=O)N5CCNCC5)cc4)ccc23)n[nH]1)Nc1cccc(F)c1 [Compound 4, N-(3-fluorophenyl)-2-(3-(7-(4-(piperazine-1-carbonyl)phenyl)quinazolin-4-ylamino)-1H-pyrazol-5-yl)acetamide] | 8.42 | 9.15 | 8.68 | 8.88 | 8.11 | 8.25 | 8.11 | 8.22
O=C(Cc1cc(Nc2ncnc3cc(-c4ccc(C(=O)N5CCN(CCO)CC5)cc4)ccc23)n[nH]1)Nc1cccc(F)c1 [Compound 1, N-(3-fluorophenyl)-2-(3-(7-(4-(4-(2-hydroxyethyl)piperazine-1-carbonyl)phenyl)quinazolin-4-ylamino)-1H-pyrazol-5-yl)acetamide] | 8.71 | 9.32 | 8.74 | 8.88 | 7.92 | 8.27 | 7.77 | 8.24
CN1CCN(C(=O)c2ccc(-c3ccc4c(Nc5cc(CC(=O)Nc6cccc(F)c6)[nH]n5)ncnc4c3)cc2)CC1 [Compound 2, N-(3-fluorophenyl)-2-(3-(7-(4-(4-methylpiperazine-1-carbonyl)phenyl)quinazolin-4-ylamino)-1H-pyrazol-5-yl)acetamide] | 8.29 | 9.07 | 8.40 | 8.74 | 8.20 | 8.44 | 8.07 | 8.28
